From publication PMC11189382, “Structural basis of connexin-36 gap junction channel inhibition” (Cell Discovery, 2024)

Experiments:
[1] = molecular target: T1, Cx36 (Homo sapiens, UniProt Q9UKL4); experiment: cryo-EM structure of the complex; type: binding; settings: detergent, pore pocket between TM1 and TM2 at interface of two monomers
T1 construct: gene GJD2; purified in detergent; gap junction channel of docked hexameric hemichannels
T1 sequence (Q9UKL4 1-321): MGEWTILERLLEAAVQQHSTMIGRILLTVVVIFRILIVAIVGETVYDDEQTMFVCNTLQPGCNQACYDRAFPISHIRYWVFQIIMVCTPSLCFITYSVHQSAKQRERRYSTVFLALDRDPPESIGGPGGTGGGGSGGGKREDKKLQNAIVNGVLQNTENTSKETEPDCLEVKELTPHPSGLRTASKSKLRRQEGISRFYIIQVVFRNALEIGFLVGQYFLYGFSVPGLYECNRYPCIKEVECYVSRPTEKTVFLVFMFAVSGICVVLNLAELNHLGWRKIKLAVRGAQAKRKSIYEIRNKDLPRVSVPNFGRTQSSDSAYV

[2] = molecular target: T1, Cx36; experiment: ligand binding assay with purified Cx36

SMILES	cryo-EM structure of the complex ([1]; 1 mM racemic drug)	Kd [2]	cryo-EM structure of the complex ([1]; 1 mM drug)
OC(c1cc(C(F)(F)F)nc2c(C(F)(F)F)cccc12)C1CCCCN1 (racemic) [mefloquine]	although we used a racemic mixture of the drug, the high-resolution structure captured the S/R-enantiomer	10.4 ± 1.3 µM	–
C=C[C@H]1CN2CC[C@H]1C[C@@H]2[C@@H](O)c1ccnc2ccc(OC)cc12 [quinidine]	–	58 ± 9 µM	Cx36–quin, and Cx36–quid feature additional densities, corresponding to six bound drugs per Cx36 hexamer
C=C[C@H]1CN2CC[C@H]1C[C@H]2[C@H](O)c1ccnc2ccc(OC)cc12 [quinine]	–	29 ± 5.3 µM	Cx36–quin, and Cx36–quid feature additional densities, corresponding to six bound drugs per Cx36 hexamer
